Results taken from patent publication US20250179103A1, “6-OXODECAHYDROPYRROLO[1,2-A][1,5]DIAZOCINE AND 6-OXODECAHYDRO-4H-PYRROLO[2,1-D][1,5]THIAZOCINE DERIVATIVES AS STAT3 AND STAT6 MODULATORS FOR THE TREATMENT OF CANCER AND INFLAMMATORY CONDITIONS” (Recludix Pharma, Inc., priority 2022, published 2025).

What was measured:
[1] = biological target: T1, Recombinant STAT6 protein (STAT6(W123-T658)) (Homo sapiens, UniProt P42226); assay: STAT6 Fluorescence Polarization (FP) Assay; type: binding; details: STAT6(W123-T658) 250 nM, probe 5-FAM-ApYKPFQDLI-NH2 2 nM, 45-minute incubation
T1 construct: Recombinant STAT6 protein (STAT6(W123-T658))
T1 sequence (P42226 123-658): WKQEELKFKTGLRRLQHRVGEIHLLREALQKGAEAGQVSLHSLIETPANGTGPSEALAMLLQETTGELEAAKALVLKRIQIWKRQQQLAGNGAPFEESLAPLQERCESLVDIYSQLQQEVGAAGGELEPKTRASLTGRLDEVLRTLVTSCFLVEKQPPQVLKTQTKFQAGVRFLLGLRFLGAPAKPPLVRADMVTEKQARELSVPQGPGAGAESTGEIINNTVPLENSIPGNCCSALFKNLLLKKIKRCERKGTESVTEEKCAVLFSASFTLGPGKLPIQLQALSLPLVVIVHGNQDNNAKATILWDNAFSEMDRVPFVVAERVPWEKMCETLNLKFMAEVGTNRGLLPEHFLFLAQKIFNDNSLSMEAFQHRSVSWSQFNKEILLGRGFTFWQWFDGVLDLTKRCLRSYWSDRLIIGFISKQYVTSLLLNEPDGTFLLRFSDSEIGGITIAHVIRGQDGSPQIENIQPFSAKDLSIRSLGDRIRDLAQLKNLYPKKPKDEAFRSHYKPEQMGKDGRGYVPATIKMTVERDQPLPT
Method in brief: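 Displacement of a fluorescent phosphotyrosine peptide (5-FAM-ApYKPFQDLI-NH2, 2 nM) from STAT6(W123-T658) (250 nM), 1% DMSO, pH 7.4 HEPES buffer. After 45 min at room temperature, polarization (mP) was plotted versus log compound concentration and fitted by nonlinear regression to give IC50.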

[2] = biological target: T2, Recombinant STAT3 protein (STAT3(G127-I722)) (Homo sapiens, UniProt P40763); assay: STAT3 Fluorescence Polarization (FP) Assay; type: binding; details: STAT3(G127-I722) 25 nM, probe 5-FAM-GpYLPQTV-NH2 2 nM, 45-minute incubation
T2 construct: Recombinant STAT3 protein (STAT3(G127-I722))
T2 sequence (P40763 127-722): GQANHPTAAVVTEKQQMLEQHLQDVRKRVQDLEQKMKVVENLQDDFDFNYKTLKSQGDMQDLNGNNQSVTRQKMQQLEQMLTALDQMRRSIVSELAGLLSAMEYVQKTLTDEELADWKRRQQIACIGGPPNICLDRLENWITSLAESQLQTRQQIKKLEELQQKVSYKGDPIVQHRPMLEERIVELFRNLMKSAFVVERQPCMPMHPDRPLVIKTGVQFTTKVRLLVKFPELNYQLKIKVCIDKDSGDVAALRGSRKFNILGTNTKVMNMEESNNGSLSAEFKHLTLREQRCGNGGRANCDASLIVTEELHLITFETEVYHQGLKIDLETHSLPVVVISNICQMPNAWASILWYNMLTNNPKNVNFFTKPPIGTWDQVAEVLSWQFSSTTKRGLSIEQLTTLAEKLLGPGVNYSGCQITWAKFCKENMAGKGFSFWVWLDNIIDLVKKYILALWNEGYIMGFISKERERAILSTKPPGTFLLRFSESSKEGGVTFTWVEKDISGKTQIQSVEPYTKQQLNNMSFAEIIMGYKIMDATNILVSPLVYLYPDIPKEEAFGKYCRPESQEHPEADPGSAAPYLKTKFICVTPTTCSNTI
Method in brief: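 STAT3(G127-I722), 25 nM, was mixed with 2 nM 5-FAM-GpYLPQTV-NH2 probe in HEPES pH 7.4 buffer with 1% DMSO and serially diluted compound. FP (mP) was read after 45 min at room temperature. IC50 came from nonlinear regression.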

Which results are given for `CCN1CC[C@H](NC(=O)c2cc3cc(C(F)(F)P(=O)(O)O)ccc3s2)C(=O)N2[C@H](CC[C@H]2C(=O)N2CC(c3cccnc3)C2)C1` [Compound 226, ((2-(((5S,8S,10aR)-2-ethyl-6-oxo-8-(3-(pyridin-3-yl)azetidine-1-carbonyl)decahydropyrrolo[1,2-a][1,4]diazocin-5-yl)carbamoyl)benzo[b]thiophen-5-yl)difluoromethyl)phosphonic acid]?
IC50 [1]: 0.3 to 3 µM; IC50 [2]: ≤ 0.1 µM

Which results are given for `CC(=O)N1CC[C@H]2CC[C@@H](C(=O)N3C[C@H](C#N)C[C@@H]3Cc3ccccc3)N2C(=O)[C@@H](NC(=O)c2cc3cc(C(F)(F)P(=O)(O)O)ccc3s2)C1` [Compound 43, ((2-(((5S,8S,10aR)-3-acetyl-8-((2R,4R)-2-benzyl-4-cyanopyrrolidine-1-carbonyl)-6-oxodecahydropyrrolo[1,2-a][1,5]diazocin-5-yl)carbamoyl)benzo[b]thiophen-5-yl)difluoromethyl)phosphonic acid]?
IC50 [1]: 0.3 to 3 µM; IC50 [2]: 1 to 10 µM

With `COc1ccc(N(C)C(=O)[C@@H]2CC[C@@H]3CCN(C(C)=O)C[C@H](NC(=O)c4cc5cc(C(F)(F)P(=O)(O)O)ccc5[nH]4)C(=O)N32)cc1` [Compound 166, ((2-(((5S,8S,10aR)-3-acetyl-8-((4-methoxyphenyl)(methyl)carbamoyl)-6-oxodecahydropyrrolo[1,2-a][1,5]diazocin-5-yl)carbamoyl)-1H-indol-5-yl)difluoromethyl)phosphonic acid] as the compound, how does the IC50 [1] read?
The IC50 was 0.3 to 3 µM.

And the IC50 [2]?
Its IC50 is 1 to 10 µM.

How did the IC50 [1] turn out when `CC(=O)N1CC[C@H]2CC[C@@H](C(=O)Nc3ccc(-c4ccccc4)cc3)N2C(=O)[C@@H](NC(=O)c2cc3cc(C(F)(F)P(=O)(O)O)c(F)cc3s2)C1` [Compound 46, ((2-(((5S,8S,10aR)-8-([1,1′-biphenyl]-4-ylcarbamoyl)-3-acetyl-6-oxodecahydropyrrolo[1,2-a][1,5]diazocin-5-yl)carbamoyl)-6-fluorobenzo[b]thiophen-5-yl)difluoromethyl)phosphonic acid] was run?
Its IC50 is 0.3 to 3 µM.

And the IC50 [2]?
Its IC50 is 1 to 10 µM.

Which IC50 [1] does the source give for `O=C(N[C@H]1CN(C(=O)c2ncn3ccccc23)CC[C@H]2CC[C@@H](C(=O)N3CCOCC3)N2C1=O)c1ccc2ccc(C(F)P(=O)(O)O)cc2c1` (stereo partly drawn) [Compound 357, (fluoro(7-(((5S,8S,10aR)-3-(imidazo[1,5-a]pyridine-1-carbonyl)-8-(morpholine-4-carbonyl)-6-oxodecahydro-pyrrolo[1,2-a][1,5]diazocin-5-yl)carbamoyl)naphthalen-2-yl)methyl)phosphonic acid] here?
The IC50 was 0.3 to 3 µM.

And the IC50 [2]?
The IC50 was greater than 10 µM.

`O=C(N[C@H]1CN(S(=O)(=O)CCc2ccccc2)CC[C@H]2CC[C@@H](C(=O)Nc3ccc(-c4ccccc4)cc3)N2C1=O)c1cc2cc(C(F)(F)P(=O)(O)O)ccc2s1` [Compound 268, ((2-(((5S,8S,10aR)-8-([1,1′-biphenyl]-4-ylcarbamoyl)-6-oxo-3-(phenethylsulfonyl)decahydropyrrolo[1,2-a][1,5]diazocin-5-yl)carbamoyl)benzo[b]thiophen-5-yl)difluoromethyl)phosphonic acid] was tested. Which IC50 [1] did it give?
Its IC50 is 0.3 to 3 µM.

What about the IC50 [2] of the same compound?
Its IC50 is 1 to 10 µM.

For `CC(=O)N1CC[C@H]2CC[C@@H](C(=O)N(C)c3ccccc3)N2C(=O)[C@@H](NC(=O)c2ccc3ccc(CP(=O)(O)O)cc3c2)C1` [Compound 15, ((7-(((5S,8S,10aR)-3-acetyl-8-(methyl(phenyl)carbamoyl)-6-oxodecahydropyrrolo[1,2-a][1,5]diazocin-5-yl)carbamoyl)naphthalen-2-yl)methyl)phosphonic acid], which IC50 [1] is on record?
Its IC50 is 3 to 30 µM.

And the IC50 [2]?
The IC50 was greater than 10 µM.

Which results are given for `CC(=O)N1CC[C@H]2CC[C@@H](C(=O)N3C[C@@H](C#N)[C@H](c4cccnc4)C3)N2C(=O)[C@@H](NC(=O)c2cc3cc(C(F)(F)P(=O)(O)O)ccc3s2)C1` (relative stereo) [Compound 150, ((2-(((5S,8S,10aR)-3-acetyl-8-((rel-trans)-3-cyano-4-(pyridin-3-yl)pyrrolidine-1-carbonyl)-6-oxodecahydropyrrolo[1,2-a][1,5]diazocin-5-yl)carbamoyl)benzo[b]thiophen-5-yl)difluoromethyl)phosphonic acid]?
IC50 [1]: ≤ 0.3 µM; IC50 [2]: 0.1 to 1 µM

How did the IC50 [1] turn out when `CC(=O)N1CC[C@H]2CC[C@@H](C(=O)N(C)c3ccccc3)N2C(=O)[C@@H](NC(=O)c2ccc3ccc(P(=O)(O)O)cc3c2)C1` [Compound 114, (7-(((5S,8S,10aR)-3-acetyl-8-(methyl(phenyl)carbamoyl)-6-oxodecahydropyrrolo[1,2-a][1,5]diazocin-5-yl)carbamoyl)naphthalen-2-yl)phosphonic acid] was run?
The IC50 was greater than 30 µM.

And the IC50 [2]?
The IC50 was greater than 10 µM.

How did the IC50 [1] turn out when `CC(=O)N1CC[C@H]2CC[C@@H](C(=O)N(C)C)N2C(=O)[C@@H](NC(=O)c2cc3cc(C(F)(F)P(=O)(O)O)ccc3[nH]2)C1` [Compound 29, ((2-(((5S,8S,10aR)-3-acetyl-8-(dimethylcarbamoyl)-6-oxodecahydropyrrolo[1,2-a][1,5]diazocin-5-yl)carbamoyl)-1H-indole-5-yl)difluoromethyl)phosphonic acid] was run?
The IC50 was 0.3 to 3 µM.

What about the IC50 [2] of the same compound?
Its IC50 is 1 to 10 µM.

`C[C@H](CC(=O)N1CC[C@H]2CC[C@@H](C(=O)N3CCCC3)N2C(=O)[C@@H](NC(=O)c2cc3cc(C(F)(F)P(=O)(O)O)ccc3s2)C1)c1ccccc1` [Compound 260, (difluoro(2-(((5S,8S,10aR)-6-oxo-3-((R)-3-phenylbutanoyl)-8-(pyrrolidine-1-carbonyl)decahydropyrrolo[1,2-a][1,5]diazocin-5-yl)carbamoyl)benzo[b]thiophen-5-yl)methyl)phosphonic acid] was tested. Which IC50 [1] did it give?
Its IC50 is 0.3 to 3 µM.

And the IC50 [2]?
Its IC50 is 0.1 to 1 µM.

Which results are given for `CC(=O)N1CC[C@H]2CC[C@@H](C(=O)Nc3ccc4cnccc4c3)N2C(=O)[C@@H](NC(=O)c2cc3cc(C(F)(F)P(=O)(O)O)ccc3s2)C1` [Compound 158, ((2-(((5S,8S,10aR)-3-acetyl-8-(isoquinolin-6-ylcarbamoyl)-6-oxodecahydropyrrolo[1,2-a][1,5]diazocin-5-yl)carbamoyl)benzo[b]thiophen-5-yl)difluoromethyl)phosphonic acid]?
IC50 [1]: 0.3 to 3 µM; IC50 [2]: 0.1 to 1 µM

How did the IC50 [1] turn out when `CC(=O)N1CC[C@H]2CC[C@@H](C(=O)N(C)c3ccc4oncc4c3)N2C(=O)[C@@H](NC(=O)c2cc3cc(C(F)(F)P(=O)(O)O)ccc3s2)C1` [Compound 49, ((2-(((5S,8S,10aR)-3-acetyl-8-(benzo[d]isoxazol-5-yl(methyl)carbamoyl)-6-oxodecahydropyrrolo[1,2-a][1,5]diazocin-5-yl)carbamoyl)benzo[b]thiophen-5-yl)difluoromethyl)phosphonic acid] was run?
The IC50 was 3 to 30 µM.

What about the IC50 [2] of the same compound?
The IC50 was 1 to 10 µM.

Which IC50 [1] does the source give for `CN(C(=O)[C@@H]1CC[C@@H]2CCN(CC(F)F)C[C@H](NC(=O)c3cc4cc(C(F)(F)P(=O)(O)O)ccc4[nH]3)C(=O)N21)c1ccccc1` [Compound 218, ((2-(((5S,8S,10aR)-3-(2,2-difluoroethyl)-8-(methyl(phenyl)carbamoyl)-6-oxodecahydropyrrolo[1,2-a][1,5]diazocin-5-yl)carbamoyl)-1H-indol-5-yl)difluoromethyl)phosphonic acid] here?
The IC50 was 0.3 to 3 µM.

And the IC50 [2]?
The IC50 was 1 to 10 µM.

`CC(=O)N1CC[C@H]2CC[C@@H](C(=O)N(C)c3ccccc3)N2C(=O)[C@@H](NC(=O)/C=C/c2cccc(C(F)(F)P(=O)(O)O)c2)C1` [Compound 51, ((3-((E)-3-(((5S,8S,10aR)-3-acetyl-8-(methyl(phenyl)carbamoyl)-6-oxodecahydropyrrolo[1,2-a][1,5]diazocin-5-yl)amino)-3-oxoprop-1-en-1-yl)phenyl)difluoromethyl)phosphonic acid] was tested. Which IC50 [1] did it give?
Its IC50 is 3 to 30 µM.

And the IC50 [2]?
The IC50 was greater than 10 µM.

With `CCN1CC[C@H]2CC[C@@H](C(=O)N3C[C@@H](C#N)[C@H](c4cc[nH]c(=O)c4)C3)N2C(=O)[C@@H](NC(=O)c2ccc3ccc(C(F)(F)P(=O)(O)O)cc3c2)C1` (relative stereo) [Compound 240, ((7-(((5S,8S,10aR)-8-((rel-trans)-3-cyano-4-(2-oxo-1,2-dihydropyridin-4-yl)pyrrolidine-1-carbonyl)-3-ethyl-6-oxodecahydropyrrolo[1,2-a][1,5]diazocin-5-yl)carbamoyl)naphthalen-2-yl)difluoromethyl)phosphonic acid] as the compound, how does the IC50 [1] read?
Its IC50 is 0.3 to 3 µM.

What about the IC50 [2] of the same compound?
Its IC50 is 1 to 10 µM.

For `COc1cc(CN2CC[C@H]3CC[C@@H](C(=O)N4CC(c5cccnc5)C4)N3C(=O)[C@@H](NC(=O)c3cc4cc(C(F)(F)P(=O)(O)O)ccc4s3)C2)ccc1-n1cnc(C)c1` [Compound 275, (difluoro(2-(((5S,8S,10aR)-3-(3-methoxy-4-(4-methyl-1H-imidazol-1-yl)benzyl)-6-oxo-8-(3-(pyridin-3-yl)azetidine-1-carbonyl)decahydropyrrolo[1,2-a][1,5]diazocin-5-yl)carbamoyl)benzo[b]thiophen-5-yl)methyl)phosphonic acid], which IC50 [1] is on record?
The IC50 was 3 to 30 µM.

What about the IC50 [2] of the same compound?
The IC50 was no more than 0.1 µM.
